Series [1] can be described thus: Live/Dead cytotoxicity assay, hybridoma supernatant. To be noted: human. As to the method: (§1) In conjunction with testing for antibody binding, the cytotoxic effects of the hybridoma supernatants were tested in the same colon cancer and normal cell lines: HT-29, SW1116 (and Lovo for AR26A439.3) and CCD-27sk. The Live/Dead cytotoxicity assay was obtained from Molecular Probes ([…].). The assays were performed according to the manufacturer's instructions with the changes outlined below. Cells were plated before the assay at the predetermined appropriate density. After 2 days, 100 μl of supernatant from the hybridoma microtitre plates were transferred to the cell plates and incubated in a 5 percent CO2 incubator for 5 days. […] An anti-EGFR antibody (C225) was also used in the assay for comparison. After 5 days of treatment, the plate was then emptied by inverting and blotting dry. Room temperature DPBS (Dulbecco's phosphate buffered saline) containing MgCl2 and CaCl2 was dispensed into each well from a multichannel squeeze bottle, tapped 3 times, emptied by inversion and then blotted dry. 50 μl of the fluorescent Live/Dead dye diluted in DPBS containing MgCl2 and CaCl2 was added to each well and incubated at 37° C. in a 5% CO2 incubator for 30 minutes. The plates were read in a Perkin-Elmer HTS7000 fluorescence plate reader and the data was analyzed in Microsoft Excel.

Series [2] relates to HT-29 colon cancer cell line. The description is as above. To be noted: 5 days. As to the method: as §1
In series [3] the test system is CCD-27sk normal cell line. Described as above. To be noted: 5 days. As to the method:
as §1

As to `[N-]=[N+]=[N-]` [NaN3, sodium azide], the cytotoxicity at 5 days in series [1] was 4%; in series [1] (Cytotoxicity (%) HT-29 Average) it was 59%. Moreover, in series [2], the “Cytotoxicity (%) HT-29 Average” value is reported as 57%.
On to `C[C@@H]1C[C@@H]([C@H](O)CC2CC(=O)NC(=O)C2)C(=O)[C@@H](C)C1` [Cycloheximide], for which the figures for the cytotoxicity at 5 days in series [1], in series [1] (Cytotoxicity (%) CCD-27sk Average) and in series [1] (Cytotoxicity (%) HT-29 Average) were 56%, 21% and 46%, respectively. Besides, the “Cytotoxicity (%) CCD-27sk Average” value in series [3] is reported as 40%. For the same molecule, the “Cytotoxicity (%) HT-29 Average” value in series [2] was determined as 48%.
